Source: ChEMBL document CHEMBL1156499, “Tripeptides of RS1 (RSC1A1) inhibit a monosaccharide-dependent exocytotic pathway of Na+-D-glucose cotransporter SGLT1 with high affinity” (J Biol Chem, 2007)
Blank lines part the entries; values can stand above or below the molecule they belong to. Active and inactive are the calls of the source. No cut-off for these calls is given here. Peptide text beside a SMILES is read from it.

Assays:
[1] = molecular target: T1, Sodium/glucose cotransporter 1 (Homo sapiens) (UniProt P13866); experiment: Inhibition of human SGLT1 expressed in xenopus laevis oocyte assessed as inhibition of methyl-alpha-D-[14C]glucopyranoside uptake at 75 pmol after 1 hr relative to control; design: Activity: scale not given: the % may be the effect or the level left
T1 sequence (whole entry): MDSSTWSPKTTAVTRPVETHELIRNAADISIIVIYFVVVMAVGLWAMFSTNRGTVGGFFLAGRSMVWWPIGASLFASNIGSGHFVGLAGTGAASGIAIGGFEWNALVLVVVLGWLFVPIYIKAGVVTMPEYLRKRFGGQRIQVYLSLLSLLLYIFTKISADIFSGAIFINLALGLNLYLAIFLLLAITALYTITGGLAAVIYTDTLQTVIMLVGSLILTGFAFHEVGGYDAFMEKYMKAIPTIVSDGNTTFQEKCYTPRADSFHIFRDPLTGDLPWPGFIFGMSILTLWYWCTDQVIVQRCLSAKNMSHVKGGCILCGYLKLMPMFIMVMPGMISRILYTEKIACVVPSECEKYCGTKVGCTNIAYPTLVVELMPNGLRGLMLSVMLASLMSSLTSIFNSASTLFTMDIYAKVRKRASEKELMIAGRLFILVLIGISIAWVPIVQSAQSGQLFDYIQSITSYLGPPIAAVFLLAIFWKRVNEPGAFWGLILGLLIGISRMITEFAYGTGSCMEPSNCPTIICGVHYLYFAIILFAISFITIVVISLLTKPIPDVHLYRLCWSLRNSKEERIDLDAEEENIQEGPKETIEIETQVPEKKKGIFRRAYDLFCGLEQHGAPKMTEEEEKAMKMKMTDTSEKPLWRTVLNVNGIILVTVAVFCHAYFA

[2] = molecular target: T2, Solute carrier family 15 member 1 (Homo sapiens) (UniProt P46059); experiment: Activity of human PepT1 expressed in xenopus laevis oocyte assessed as induction of inward current at 5 mM
T2 sequence (whole entry): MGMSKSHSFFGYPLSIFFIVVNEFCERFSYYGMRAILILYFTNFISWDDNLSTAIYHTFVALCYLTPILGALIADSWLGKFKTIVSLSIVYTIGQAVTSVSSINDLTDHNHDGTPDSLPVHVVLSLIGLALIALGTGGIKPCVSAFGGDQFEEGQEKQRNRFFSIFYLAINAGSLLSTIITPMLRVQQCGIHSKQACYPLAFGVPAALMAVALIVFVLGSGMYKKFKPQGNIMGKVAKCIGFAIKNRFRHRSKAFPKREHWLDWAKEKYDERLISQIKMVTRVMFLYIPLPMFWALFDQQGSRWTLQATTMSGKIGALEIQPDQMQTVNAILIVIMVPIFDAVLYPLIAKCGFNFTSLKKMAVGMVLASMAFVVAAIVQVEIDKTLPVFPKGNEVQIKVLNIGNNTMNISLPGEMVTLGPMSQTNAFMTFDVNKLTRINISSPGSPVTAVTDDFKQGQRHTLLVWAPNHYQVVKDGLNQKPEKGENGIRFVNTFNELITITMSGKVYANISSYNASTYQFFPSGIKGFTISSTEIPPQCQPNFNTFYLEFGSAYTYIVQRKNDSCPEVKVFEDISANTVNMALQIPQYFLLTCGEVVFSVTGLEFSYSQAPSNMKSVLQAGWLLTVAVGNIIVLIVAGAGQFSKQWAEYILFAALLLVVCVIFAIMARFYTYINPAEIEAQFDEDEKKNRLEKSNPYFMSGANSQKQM

[3] = molecular target: T1, Sodium/glucose cotransporter 1 (Homo sapiens); experiment: Reversal of inhibition of human SGLT1 expressed in xenopus laevis oocyte assessed as inhibition of methyl-alpha-D-[14C]glucopyranoside uptake at 75 pmol after 1 hr in presence of D-fructose relative to control
[4] = molecular target: T1, Sodium/glucose cotransporter 1 (Homo sapiens); experiment: Reversal of inhibition of human SGLT1 expressed in xenopus laevis oocyte by measuring inhibition of methyl-alpha-D-[14C]glucopyranoside uptake after 1 hr assessed concentration required for 50 % protective high affinity in presence of D-glucose relative to control
[5] = molecular target: T1, Sodium/glucose cotransporter 1 (Homo sapiens); experiment: Reversal of inhibition of human SGLT1 expressed in xenopus laevis oocyte by measuring inhibition of methyl-alpha-D-[14C]glucopyranoside uptake after 1 hr assessed concentration required for 50% protective high affinity in presence of methyl-alpha-D-glucopyranoside relative to control
[6] = molecular target: T1, Sodium/glucose cotransporter 1 (Homo sapiens); experiment: Reversal of inhibition of human SGLT1 expressed in xenopus laevis oocyte assessed as inhibition of methyl-alpha-D-[14C]glucopyranoside uptake at 75 pmol after 1 hr in presence of D-glucose relative to control
Small intestine = experiment: Decrease of D-glucose absorption in perfused rat small intestine at 15 mM relative to control; assay type: functional; design: scale not given: the % may be the effect or the level left
[7] = molecular target: T1, Sodium/glucose cotransporter 1 (Homo sapiens); experiment: Reversal of inhibition of human SGLT1 expressed in xenopus laevis oocyte assessed as inhibition of methyl-alpha-D-[14C]glucopyranoside uptake at 75 pmol after 1 hr in presence of 2-deoxyglucose relative to control
[8] = molecular target: T1, Sodium/glucose cotransporter 1 (Homo sapiens); experiment: Reversal of inhibition of human SGLT1 expressed in xenopus laevis oocyte assessed as inhibition of methyl-alpha-D-[14C]glucopyranoside uptake at 75 pmol after 1 hr in presence of methyl-alpha-D-glucopyranoside relative to control
[9] = molecular target: T1, Sodium/glucose cotransporter 1 (Homo sapiens); experiment: Reversal of inhibition of human SGLT1 expressed in xenopus laevis oocyte by measuring inhibition of methyl-alpha-D-[14C]glucopyranoside uptake after 1 hr assessed concentration required for 50% protective high affinity in presence of 2-deoxyglucose relative to control
[10] = substrate: NC(=O)CC[C@H](N)C(=O)N[C@@H](CO)C(=O)N1CCC[C@H]1C(=O)O; experiment: Activity of human PepT1 expressed in xenopus laevis oocyte assessed as induction of inward current

Molecule: NCC(=O)N[C@@H](CCC(N)=O)C(=O)O (H-Gly-Gln-OH)
- Activity [2]: Active

Molecule: CC(=O)N[C@@H](CCC(N)=O)C(=O)N[C@@H](CS)C(=O)N1CCC[C@H]1C(=O)O (Ac-Gln-Cys-Pro-OH)
- Activity [2]: Active
- Activity [1]: inactive

Molecule: CC(=O)N1CCC[C@H]1C(=O)N[C@@H](CO)C(=O)N[C@@H](CCC(N)=O)C(=O)O (Ac-Pro-Ser-Gln-OH)
- Activity [1]: 44%

Molecule: CC(=O)N1CCC[C@H]1C(=O)N[C@H](C(=O)N[C@@H](CCC(N)=O)C(=O)O)[C@@H](C)O (Ac-Pro-Thr-Gln-OH)
- Activity [1]: Active

B1: Solute carrier family 15 member 1 (Homo sapiens), P46059 (protein)
chain: T2 sequence (whole entry)
- Km [10]: 4.2 mM

Continued, in another order:

- inhibition [1]: 55%
Molecule: Ac-SVQPCQENQ-OH

- Activity [1]: Active
Molecule: CC(=O)N1CCC[C@H]1C(=O)N1CCC[C@H]1C(=O)N[C@@H](CCC(N)=O)C(=O)O (Ac-Pro-Pro-Gln-OH)

- Activity [2]: Active
- Activity [3]: Active
- Activity [4]: 30 µM
- Activity [5]: 53 µM
- Activity [6]: Active
- Activity [1]: Active
- Activity [7]: Active
- Activity [8]: Active
- Activity [9]: 11.9 µM
Molecule: NC(=O)CC[C@H](N)C(=O)N[C@@H](CO)C(=O)N1CCC[C@H]1C(=O)O (H-Gln-Ser-Pro-OH)
- Activity (Small intestine): 30%

- Activity [1]: Active
Molecule: CC(=O)N1CCC[C@H]1C(=O)N[C@@H](CC(C)C)C(=O)N[C@@H](CCC(N)=O)C(=O)O (Ac-Pro-Leu-Gln-OH)

- Activity [3]: Active
- Activity [5]: 53 µM
- Activity [6]: Active
- Activity [1]: Active
- Activity [7]: Active
- Activity [8]: Active
- Activity [9]: 11.9 µM
Molecule: NC(=O)CC[C@H](N)C(=O)N[C@@H](CS)C(=O)N1CCC[C@H]1C(=O)O (H-Gln-Cys-Pro-OH)

- Activity [1]: Active
Molecule: CC(=O)N1CCC[C@H]1C(=O)NCC(=O)N[C@@H](CCC(N)=O)C(=O)O (Ac-Pro-Gly-Gln-OH)

- Activity [1]: Active
Molecule: CC(=O)N[C@@H](CCC(N)=O)C(=O)N[C@@H](CCC(=O)O)C(=O)N1CCC[C@H]1C(=O)O (Ac-Gln-Glu-Pro-OH)
